Test results as given in patent US6770740B1, “Crosslinked DNA condesate compositions and gene delivery methods” (The Regents of the University of Michigan, priority 1999, dated 2004).
Where a SMILES comes first, the peptide text is derived from it.

Legend:
[1] = QELS particle size and zeta potential of peptide DNA condensates, Example 6; format: physicochemical; conditions: charge ratio 4:1, 50 μg/ml DNA in HBM; for Particle Size (nm): 90°, average and SD of three, No particles formed; for Zeta Potential (mV): average and SD of ten
Experimental: The particle size and zeta potential of peptide DNA condensates were determined by quasielastic light scattering (QELS) using a Brookhave ZetaPlus™. Particle size analysis was performed in triplicate at a DNA concentration of 50 μg/ml in HBM at a charge ratio of 4:1 and a scattering angle of 90°. Data analysis utilized a multimodal volume distribution option included with the instrument. Zeta potential was also determined using 50 μg/ml peptide DNA condensates prepared at a 4:1 charge ratio in HBM. The reported zeta potential was averaged from ten determinations.

[2] = Shear stress stability (salt sonication assay), Example 6; format: physicochemical; conditions: 30 sec sonication
Experimental: The relative stability of peptide DNA condensates were examined using a salt sonication assay (Adami and Rice, 1999). Peptide DNA condensates (200 μl of 50 μg/ml) were formed as described above, incubated at RT for 30 min and then combined with 0-200 μl of 5 m […] and normalized to 400 μl with HBM to achieve a final sodium chloride concentration of 0, 0.2, 0.4, 0.8, 1.0, 1.5, 2.0 and 2.5 M. Each sample was sonicated for 30 sec with a 100 W Microson™ XL-2000 ultrasonic probe homogenizer (Kontes, Vineland N.J.) with a vibrational amplitude of 5 fragment uncondensed DNA. DNA condensates were digested with 30 μg to trypsin for 12 h at 37° C., electrophoresed on a 1% agarose gel electrophoresed in TEA buffer for 2 h, then visualized by ethidium bromide staining and destaining prior to photography on a transilluminator.

[3] = tested on: COS 7 cells; assay: Luciferase gene expression in COS 7 cells, Example 6; format: cell-based; conditions: COS 7, 80 μM chloroquine
[4] = tested on: plasmid DNA; assay: Thiazole orange displacement titration of peptide binding to DNA, Example 6; conditions: titration across charge ratios 0.25-8
Experimental: Peptide DNA condensates were prepared by combining 50 μg of DNA in 500 μl of Hepes buffered mannitol (HBM) (5 w/v% mannitol, 5 mM Hepes, pH 7.5) with […] of peptide in 500 μl of HBM while vortexing to form peptide DNA condensates with a calculated primary amine to phosphate charge ratio between 0.25 and 8.0 (NH4^+:PO4). The condensates were allowed to cross-link for 30 min prior to performing physical measurements. The binding of each peptide to DNA was assayed by combining peptide DNA condensates (50 μl) with 950 μl of HBM containing 0.1 μM thiazole orange. The fluorescence of the intercalated dye was measured using an LS50B fluorometer (Perkin Elmer, UK) by exciting at 500 nm while monitoring emission at 530 nm with the slit width set at 15 and 20 nm, respectively. Fluorescence blanks were substracted from all values before data analysis.

[5] = target: T1, glutathione reductase (Homo sapiens, UniProt P00390); conditions: challenged with glutathione reductase; Drummer et al., 1987; cited from earlier work
T1 sequence (P00390 44-522): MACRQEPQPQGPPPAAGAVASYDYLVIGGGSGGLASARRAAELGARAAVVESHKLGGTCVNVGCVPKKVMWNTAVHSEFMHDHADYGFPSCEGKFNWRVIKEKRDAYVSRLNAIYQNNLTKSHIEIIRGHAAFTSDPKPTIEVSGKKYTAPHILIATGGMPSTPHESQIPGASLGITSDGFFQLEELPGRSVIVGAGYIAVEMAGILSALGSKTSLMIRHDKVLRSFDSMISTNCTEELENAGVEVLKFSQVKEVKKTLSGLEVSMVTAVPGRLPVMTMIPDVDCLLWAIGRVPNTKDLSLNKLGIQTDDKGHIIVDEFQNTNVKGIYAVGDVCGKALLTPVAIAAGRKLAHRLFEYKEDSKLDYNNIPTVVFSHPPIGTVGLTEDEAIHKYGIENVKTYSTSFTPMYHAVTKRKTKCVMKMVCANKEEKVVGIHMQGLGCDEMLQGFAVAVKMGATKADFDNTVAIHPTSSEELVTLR

[6] = tested on: plasmid DNA; assay: Kinetics of peptide cross-linking on DNA (SYBR-Gold), Example 6; format: physicochemical; conditions: charge ratio 4:1
Experimental: The kinetics of disulfide bond formation of peptides bound to DNA was analyzed indirectly by monitoring the displacement of SYBR-Gold™ from DNA condensates. Peptide DNA condensates were formed by combining 20 μg of DNA in 500 μl of HBM containing 1× SYBR-Gold™ with 500 μl (26-52 nmol) of peptide in HBM containing 1 × SYBR-Gold to achieve a charge ratio of 4:1 (NH4^+:PO4). The fluorescence intensity (Ex 495 nm, Em 600 nm) was continuously monitored for 30 min to determine kinetics of cross-linking.

[7] = tested on: HepG2 cells; assay: Luciferase gene expression in HepG2 cells, Example 6; format: cell-based; conditions: HepG2, absence of chloroquine
Experimental: HepG2 cells (1.5×10^5) were plated on 6×35 mm wells and grown to 50% confluencey in MEM supplemented with 10% FBS, penicillin and streptomycin (100 U/ml), sodium pyruvate (100 mM), and L-glutamine (2 mM). Transfections were performed in MEM (2 ml per 35 mm well) with 2% FBS with and without 80 μM chloroquine. Peptide DNA condensates (10 μg of DNA of 0.2 ml HBM) were added dropwise to triplicate wells. After a 5 h incubation at 37° C., the medium was replaced with MEM supplemented with 10% FBS. After 24 h, cells were washed with ice-cold phosphate buffered saline (calcium and magnesium free) and then treated with 0.5 ml of ice-cold lysis buffer (25 mM) Tris chloride pH 7.8, 1 mM EDTA, 8 mM magnesium chloride, 1% Triton X-100, 1 mM DTT) for 10 min. The cell lysates were scraped, transferred to 1.5 ml microcentrifuge tube, and centrifuged for 7 min at 13,000 g at 4° C. to pellet debris.
Lysis buffer (300 μl), sodium-ATP (4 μl of a 180 mM solution, pH 7, 4° C.) and cell lysate (100 μl, 4° C.) were combined in a test tube, briefly mixed and immediately placed in the luminometer. Luciferase relative light units (RLU) were recorded on a Lumat™ LB 9501 (Berthoid Systems, Germany) with 10 sec integration after automatic injection of 100 μl of 0.5 mM D-luciferin (prepared fresh in lysis buffer without DTT). The RLU were converted into fmol using a standard curve generated by adding a known amount of luciferase (0.01 to 100 fmols with specific activity of 2.5 nU/fmol) to 35 mm wells containing 50% confluent cells and lysis buffer. Protein concentrations were measured by Bradford assay using bovine serum albumin as a standard (Bradford, 1976). […]
LipofectAce™ (Gibco BRL, 1:2.5 w/w dimethyl dioctadecylammonium bromide and dioleoyl phosphatidylethanolamine) was used to mediate gene transaction according to the manufacturer's instructions. […] The cells were incubated for a total of 24 h, harvested and analyzed for luciferase as described above.

[8] = Kinetics of peptide oxidation (disulfide bond formation) in solution by ES-MS; format: physicochemical; conditions: pH 7.5, free in solution
Experimental: The kinetics of disulfide bond formation in solution was monitored by […]. […] Single ion monitoring (SIM) scans were taken at 20 sec intervals over 2 h while monitoring the disappearance of the M+2H^+ parent ion (1258 amu) and formation of the M+2H^+ ion of the oxidized species (1256 amu).

[9] = QELS particle size and zeta potential of cross-linking peptide DNA condensates, Example 5; format: physicochemical
Experimental: The particle size of each peptide DNA condensate was determined by quasielastic light scattering (QELS) at a scatter angle of both 15° and 90° on a Brookhaven ZetaPlus™ particle sizer. Condensates were prepared at a DNA concentration of 50 μg/ml in 400 μl HBM at a stoichiometry of 0.4 nmol of peptide per μg of DNA corresponding to a charge ratio of approximately 2:1 for each. The mean diameter and population distribution were computed from the diffusion coefficient using a unimodal cummulant analysis supplied by the manufacturer.
The particle size and zeta peptide IV DNA condensates were determined by titrating 7.5 to 37.5 nmol of peptide with 75 μg of DNA in 1.5 ml of HBM to produce 50 μg/ml DNA condensates with charge ratio of 0.5-2.5. The zeta potential was averaged from 10 determines.

[10] = tested on: plasmid DNA; assay: Kinetics of peptide cross-linking on DNA (SYBR-Gold fluorescence), Example 5; format: physicochemical; conditions: charge ratio 2:1
Experimental: The kinetics of cross-linking within peptide DNA condensates was studied indirectly by monitoring the displacement of SYBR-Gold™ intercalator dye from DNA condensates as a function of time. Peptide DNA condensates were prepared (200 μl of 50 μg/ml) at a peptide stoichiometry of 0.4 nmol per μg of DNA. Immediately after mixing peptide and DNA, a 10 μl aliquot was combined with 990 μl of SYBR-Gold™ (1X) and the fluorescence intensity (Ex 495 nm, Em 537 nm) was continuously monitored for 30 min.
The rate of cross-linking was also examined as a function of peptide concentration. The stoichiometry of peptide IV was increased from 0.4 to 1.2 nmol per μg of DNA and the rate of declining fluorescence intensity was determined as described above.

[11] = Shear stress stability of cross-linked DNA condensates (salt sonication), Example 5; format: physicochemical
Experimental: Peptide DNA condensates (200 μl of 50 μg/ml) were formed and incubated at RT for 30 min and then combined with 0 to 200 μl of 5 M sodium chloride and normalized to 400 μl with HBM to achieve a final sodium chloride concentration of 0, 0.2, 0.4, 0.8, 1.0, 1.5, 2.0, and 2.5 M. Each sample was sonicated for 30 sec with a 100 W Microson™ XL-2000 ultrasonic probe homogenizer (Kontes, Vineland N.J.) with a vibrational amplitude of 6 to fragment uncondensed DNA (Adami et al., 1998). DNA condensates were digested with 30 μg of trypsin for 12 h at 37° C. then electrophoresed on an agarose gel and visualized by ethidium bromide staining.

[12] = tested on: CHO cells; assay: Luciferase gene expression in CHO cells, Example 6; format: cell-based; conditions: 80 μM chloroquine

With Cys-(Lys)8-Cys (CKKKKKKKKC) [Peptide 7] the “Particle Size (nm)” value [1] was 53 ± 16 nm, the “Zeta Potential (mV)” value [1] was 26 ± 2 mV and the “sodium chloride concentration at which DNA condensates dissociate” value [2] was 0.8 to 1 M. The “lower gene expression relative to peptide 3, 5 and 6 DNA condensates” value [3] was 5 fold and the “charge ratio (NH4+:PO4) needed to condense DNA (thiazole orange fluorescence minimum)” value [4] was 2.

For `CC(C)(SSC(C)(C)C(N)C(=O)O)C(N)C(=O)O` (stereo not shown) [Penicillamine disulfide], the “stability relative to cystine” value [5] is given as “approximately 26 fold”.

In the case of “Cys-(Lys)4-His-(Lys)3-Cys (CKKKKHKKKC) [Peptide 12]”, the “time to completion of cross-linking on DNA (SYBR-Gold asymptote)” value [6] is reported as “less than 10 min”, the “higher gene expression compared to peptide 7 DNA condensates” value [7] is reported as 3 fold and the “Particle Size (nm)” value [1] is reported as 87 ± 20 nm. The “Zeta Potential (mV)” value [1] was 30 ± 2 mV.

For `NCCCC[C@H](NC(=O)[C@H](CCCCN)NC(=O)[C@H](CCCCN)NC(=O)[C@H](CCCCN)NC(=O)[C@H](CS)NC(=O)[C@H](CCCCN)NC(=O)[C@H](CCCCN)NC(=O)[C@H](CCCCN)NC(=O)[C@H](CS)NC(=O)[C@H](CCCCN)NC(=O)[C@H](CCCCN)NC(=O)[C@H](CCCCN)NC(=O)[C@H](CS)NC(=O)[C@H](CCCCN)NC(=O)[C@H](CCCCN)NC(=O)[C@H](CCCCN)NC(=O)[C@H](CCCCN)NC(=O)[C@H](Cc1c[nH]c2ccccc12)NC(=O)[C@@H](N)CS)C(=O)N[C@@H](CS)C(=O)O` [V, Cys-Trp-Lys4-Cys-Lys3-Cys-Lys3-Cys-Lys4-Cys] (H-CWKKKKCKKKCKKKCKKKKC-OH; N-terminus and C-terminus assumed), the half-life at 100 µM ([8]; methanol/ammonium acetate solution, read-out: t½ of disappearance of the parent ion (intra-molecular disulfide formation)) was about 10 min, the “time to complete disappearance of the parent ion” value [8] was at most 25 min and the “Particle Size Mean Diameter, Oxidized, 15°” value ([9]; HBM after 2 h incubation, 50 μg/ml DNA, 0.4 nmol peptide per μg DNA, scattering angle 15°) was 41 nm. The “Particle Size Mean Diameter, Oxidized, 90°” value ([9]; HBM after 2 h incubation, 50 μg/ml DNA, 0.4 nmol peptide per μg DNA, scattering angle 90°) was 57 nm, the “Particle Size Mean Diameter, Saline” value ([9]; HBM with added saline (0.15 M) after 15 min) was 93 nm and the “Particle Size Mean Diameter, Reduced” value ([9]; following addition of TCEP (1 mM)) was 171 nm. The “time of inter-peptide cross-linking on DNA” value [10] was “less than 30 min”, the “sodium chloride concentration of DNA condensate stability after reduction” value ([11]; DNA condensates reduced with TCEP) was 0.4 M and the “sodium chloride concentration above which DNA was not protected, pre-oxidized peptide” value ([11]; peptide fully oxidized prior to making DNA condensates) was 0.4 M.

For Cys-(Lys)4-Cys (CKKKKC) [Peptide 5], the “Particle Size (nm)” value [1] was 38 ± 10 nm, the “gene expression relative to peptide 3, 6 and 7” value [12] was “three-orders of magnitude lower” and the “charge ratio (NH4+:PO4) needed to condense DNA (thiazole orange fluorescence minimum)” value [4] was 3.
